Data as given in US20030206972A1, “Compositions containing carotenoids and tocotrienols and having synergistic antioxidant effect” (priority 2000, published 2003).
Values joined by “and” are separate entries in the source; they are usually repeats but may differ in a detail not shown here. Equal entries are not always repeated.

Assay: Peroxy radical scavenging activity (BODIPY 581/591 C11 fluorescence, AMVN radical generator, microplate); synergy by CalcuSyn median-effect method
Type: biochemical
Settings: test material alone, 50 percent inhibition of peroxy radical formation, parenthetic values 95% confidence intervals
Protocol: As a peroxy radical generator, 2,2′-azobis-2,4-dimethyl valeronitrile (AMVN) was used and obtained from WAKO Chemicals (Richmond, Va.). All standards were of the highest purity commercially available. Additionally, the solvents were of HPLC grade.
Fluorescence measurements were performed using a Packard FluoroCount microplate fluorometer equipped with a temperature-controlled plate holder. All measurements were preformed in a 96-well polypropylene plate with stirring.
Reactions in octane:butyronitrile (9:1, v/v) were carried out at 30° C. All fluorescence measurements were recorded every 15 minutes for 1 hour at excitation wavelengths of 570 nm, with emission at 620 nm. The net protection (area under the curve, AUC) provided by an antioxidant sample was calculated using the trapezoid method. […] The percent inhibition of each dose was calculated as:
[AUC(dose)−AUC(AMVN)]/[AUC(BODIPY)−AUC(AMVN)]×100.
Stock solutions of the test samples were made up in chloroform and 6 μL were added to the reaction mixture to achieve the stated concentrations. The reaction was initiated by the addition of the AMVN and fluorometric readings were recorded every 15 minutes for one hour.
Synergy between astaxanthin and the sample of mixed tocotrienols was assessed using CalcuSyn (BIOSOFT, biosoft.com).
Cm is determined from the x-intercept of the median-effect plot. The fraction affected by the concentration of the test material is fa and the fraction unaffected by the concentration is fu (fu=1−fa). The exponent m is the parameter signifying the sigmoidicity or shape of the dose-effect curve. It is estimated by the slope of the median-effect plot.
The median-effect plot is a plot of x=log(C) vs y=log(fa/fu) and is based on the logarithmic form of Chou's median-effect equation. The goodness of fit for the data to the median-effect equation is represented by the linear correlation coefficient r of the median-effect plot. Usually, the experimental data from enzyme or receptor systems have an r>0.96, from tissue culture an r>0.90 and from animal systems an r>0.85.
Synergy of test components is quantified using the combination index (CI) parameter. […] The equation determines only the additive effect rather than synergism or antagonism.
Dose-response curves were described with each test article separately and then in a two-way combination.

Row | IC50 (listed as astaxanthin) | Compound | IC50
1 | – | CC1=C(/C=C/C(C)=C/C=C/C(C)=C/C=C/C=C(C)/C=C/C=C(C)/C=C/C2=C(C)CCCC2(C)C)C(C)(C)CCC1 [β-Carotene, β-carotene] | 196 (171-226) μg/mL and 135 (85-215) μg/mL
2 | 196 µg/mL and 195 µg/mL | CC1=C(/C=C/C(C)=C/C=C/C(C)=C/C=C/C=C(C)/C=C/C=C(C)/C=C/C2=C(C)C(=O)[C@@H](O)CC2(C)C)C(C)(C)C[C@H](O)C1=O [Astaxanthin, 3,3′-dihydroxy-β,β-carotene-4,4′-dieto-β-carotene] | 150 (115-194) μg/mL and 182 (145-227) μg/mL
3 | – | CC1=C[C@H](O)CC(C)(C)[C@H]1/C=C/C(C)=C/C=C/C(C)=C/C=C/C=C(C)/C=C/C=C(C)/C=C/C1=C(C)C[C@@H](O)CC1(C)C [Lutein, lutein] | 38 (29-50) μg/mL
